# Earlier results as cited in patent US20070122458A1, “Nicotine and Chocolate Compositions” (priority 2001, published 2007).
# Experiments:
# [1] = smoker, cigarette smoking
# [2] = nasal solution insufflation; smokers and non-smokers; not "sweets"
# [3] = intravenous infusion; smokers and non-smokers similarly
smiles,measurement,setting,value
CN1CCCC1c1cccnc1 (stereo not drawn) [nicotine],time to peak blood levels of nicotine after starting smoking,[1],5 to 10 min
same,"perceived taste intensity of dietary ""fat""",[2],significantly reduced
same,increase of the resting metabolic rate,[3],6.5%
